From patent publication US8609719B2, “Propargylated aminoindans, processes for preparation, and uses thereof” (priority 2006, dated 2013)
Where a name gives a salt, the structure may show the parent alone.

Experiments:
MAO-A = molecular target: T1, MAO-A (Rattus norvegicus, UniProt P21396); assay: Inhibition of MAO activity in vitro (5-HT substrate); format: biochemical
T1 construct: from tissue; host or cells: brain, liver and intestine (duodenum) of dosed rats
T1 sequence (P21396 1-526): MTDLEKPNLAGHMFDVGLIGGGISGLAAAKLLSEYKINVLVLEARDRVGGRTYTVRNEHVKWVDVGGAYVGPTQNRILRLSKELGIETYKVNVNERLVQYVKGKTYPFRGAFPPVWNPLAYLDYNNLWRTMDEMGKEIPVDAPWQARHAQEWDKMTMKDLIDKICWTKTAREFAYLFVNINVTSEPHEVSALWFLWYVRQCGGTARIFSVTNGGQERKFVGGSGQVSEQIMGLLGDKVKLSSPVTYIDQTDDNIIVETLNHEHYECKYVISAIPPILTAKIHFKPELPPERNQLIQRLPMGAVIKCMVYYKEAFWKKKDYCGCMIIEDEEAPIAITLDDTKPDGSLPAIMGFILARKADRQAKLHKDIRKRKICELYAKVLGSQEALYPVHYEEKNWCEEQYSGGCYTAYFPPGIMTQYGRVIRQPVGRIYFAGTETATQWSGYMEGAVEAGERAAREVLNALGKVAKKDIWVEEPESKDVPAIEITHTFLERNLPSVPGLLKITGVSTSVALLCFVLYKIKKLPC
Method: (§1) The MAO enzyme source was a homogenate of rat brain in 0.3M sucrose. The homogenate was diluted appropriately, and pre-incubated with serial dilutions of test compounds—diluted in phosphate buffer containing clogyline when 2-phenylethylamine (PEA) is the substrate, and diluted in phosphate buffer containing selegiline when 5-hydroxytryptamine (5-HT) is the substrate—for 60 minutes at 37° C. 14C-Labeled substrates (PEA for MAO-B determination and 5-HT for MAO-A determination) were then added, and the incubation continued for a further 20 minutes (PEA) or 30 minutes (5-HT). Substrate concentrations used were 10 μM (PEA) and 100 uM (5-HT). Enzyme concentration was chosen so that not more than 10% of the substrate was metabolized during the course of the reaction. Deaminated products were extracted into toluene-ethyl acetate (1:1 v/v) containing 0.4% (w/v) 2,5-diphenyloxazole (ppo) prior to determination by liquid scintillation counting. Radioactivity in the eluate indicated the production of neutral and acidic metabolites formed as a result of MAO activity. Activity of MAO in the sample was expressed as a percentage of control activity in the absence of inhibitor after subtraction of appropriate blank values. The activity determined using PEA as substrate is referred to as MAO-B, and that determined using 5-HT as MAO-A.
(§2) Concentrations of each inhibitor producing 50% inhibition of substrate metabolism (IC50) were calculated from the inhibition curves, and are shown in Table 1.

MAO-B = molecular target: T2, MAO-B (Rattus norvegicus, UniProt P19643); assay: Inhibition of MAO activity in vitro (PEA substrate); format: biochemical
T2 construct: from tissue; host or cells: brain, liver and intestine (duodenum) of dosed rats
T2 sequence (P19643 1-520): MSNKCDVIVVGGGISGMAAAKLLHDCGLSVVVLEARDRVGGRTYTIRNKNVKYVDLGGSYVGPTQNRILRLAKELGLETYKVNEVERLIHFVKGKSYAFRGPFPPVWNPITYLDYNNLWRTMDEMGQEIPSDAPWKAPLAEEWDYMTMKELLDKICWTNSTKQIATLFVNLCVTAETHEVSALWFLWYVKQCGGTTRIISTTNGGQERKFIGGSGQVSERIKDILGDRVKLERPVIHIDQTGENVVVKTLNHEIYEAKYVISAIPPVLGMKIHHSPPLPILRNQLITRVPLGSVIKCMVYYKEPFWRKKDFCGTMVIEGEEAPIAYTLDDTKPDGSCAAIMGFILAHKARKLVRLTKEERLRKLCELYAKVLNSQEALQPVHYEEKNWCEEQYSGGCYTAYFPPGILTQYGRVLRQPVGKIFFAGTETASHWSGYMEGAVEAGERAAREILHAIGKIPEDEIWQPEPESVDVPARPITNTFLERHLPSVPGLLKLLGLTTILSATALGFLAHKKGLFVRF
Method: as §1, §2

[1] = Pharmacokinetic analysis of ladostigil and metabolites in Alzheimer's disease patients; settings: human, in vivo, 100 mg; for Cmax / AUC / AUC(0-t): after ladostigil tartrate 100 mg twice daily; for concentration at 12 h: mean concentration at pre-dose, 12 hours after the previous dose of ladostigil tartrate; for AUC: AUC (M)

Q: For `C#CCN[C@@H]1CCc2ccc(OC(=O)NC)cc21` [R-MCPAI, Methyl-carbamic acid 3-R-(prop-2-ynylamino)-indan-5-yl ester hydrochloride], which IC50 (MAO-A) is on record?
A: 37 µM

Q: And the IC50 (MAO-B)?
A: 42 µM

Q: What about the half-life ([1]; both) of the same compound?
A: 1.39 h

Q: And the Cmax ([1]; both, Cmax (M), mean, mean of patients, maintenance analysis Week 4)?
A: 1.29e-06 M

Q: And the Cmax ([1]; both, Cmax (T), mean, mean of patients, termination analysis Week 9)?
A: 1.07e-06 M

Q: And the concentration at 12 h ([1]; both, Cmin (M), mean of patients, maintenance analysis Week 4)?
A: 1.74e-08 M

Q: What about the concentration at 12 h ([1]; both, Cmin (T), mean of patients, termination analysis Week 9) of the same compound?
A: 1.32e-08 M

Q: And the AUC ([1]; Patient 1, maintenance analysis Week 4)?
A: 0.684 µg·h/mL

Q: And the AUC ([1]; Patient 2, maintenance analysis Week 4)?
A: 0.103 µg·h/mL

Q: And the AUC ([1]; Patient 3, maintenance analysis Week 4)?
A: 0.596 µg·h/mL

Q: And the AUC ([1]; Patient 4, maintenance analysis Week 4)?
A: 0.764 µg·h/mL

Q: What about the AUC ([1]; Patient 5, maintenance analysis Week 4) of the same compound?
A: 0.491 µg·h/mL

Q: And the AUC ([1]; Patient 6, maintenance analysis Week 4)?
A: 0.63 µg·h/mL

Q: And the AUC ([1]; Patient 7, maintenance analysis Week 4)?
A: 0.212 µg·h/mL

Q: What about the AUC ([1]; Patient 8, maintenance analysis Week 4) of the same compound?
A: 0.304 µg·h/mL

Q: What about the AUC(0-t) ([1]; Patient 1, termination analysis Week 9) of the same compound?
A: 0.493 µg·h/mL

Q: What about the AUC(0-t) ([1]; Patient 2, termination analysis Week 9) of the same compound?
A: 0.789 µg·h/mL

Q: What about the AUC(0-t) ([1]; Patient 3, termination analysis Week 9) of the same compound?
A: 0.621 µg·h/mL

Q: And the AUC(0-t) ([1]; Patient 4, termination analysis Week 9)?
A: 0.487 µg·h/mL

Q: What about the AUC(0-t) ([1]; Patient 5, termination analysis Week 9) of the same compound?
A: 0.551 µg·h/mL

Q: What about the AUC(0-t) ([1]; Patient 6, termination analysis Week 9) of the same compound?
A: 0.947 µg·h/mL

Q: What about the AUC(0-t) ([1]; Patient 7, termination analysis Week 9) of the same compound?
A: 0.584 µg·h/mL

Q: And the AUC(0-t) ([1]; Patient 8, termination analysis Week 9)?
A: 0.343 µg·h/mL

Q: What about the Cmax ([1]; Cmax (M), Patient 1, maintenance analysis Week 4) of the same compound?
A: 1.8e-06 M

Q: What about the Cmax ([1]; Cmax (M), Patient 2, maintenance analysis Week 4) of the same compound?
A: 3e-07 M

Q: And the Cmax ([1]; Cmax (M), Patient 3, maintenance analysis Week 4)?
A: 1.2e-06 M

Q: What about the Cmax ([1]; Cmax (M), Patient 4, maintenance analysis Week 4) of the same compound?
A: 3e-06 M

Q: What about the Cmax ([1]; Cmax (M), Patient 5, maintenance analysis Week 4) of the same compound?
A: 1.5e-06 M

Q: And the Cmax ([1]; Cmax (M), Patient 6, maintenance analysis Week 4)?
A: 1.3e-06 M

Q: What about the Cmax ([1]; Cmax (M), Patient 7, maintenance analysis Week 4) of the same compound?
A: 5e-07 M

Q: What about the Cmax ([1]; Cmax (M), Patient 8, maintenance analysis Week 4) of the same compound?
A: 7e-07 M

Q: And the Cmax ([1]; Cmax (T), Patient 1, termination analysis Week 9)?
A: 1.3e-06 M

Q: What about the Cmax ([1]; Cmax (T), Patient 2, termination analysis Week 9) of the same compound?
A: 1e-06 M

Q: And the Cmax ([1]; Cmax (T), Patient 3, termination analysis Week 9)?
A: 1e-06 M

Q: And the Cmax ([1]; Cmax (T), Patient 4, termination analysis Week 9)?
A: 1.1e-06 M

Q: And the Cmax ([1]; Cmax (T), Patient 5, termination analysis Week 9)?
A: 1.3e-06 M

Q: And the Cmax ([1]; Cmax (T), Patient 6, termination analysis Week 9)?
A: 1.3e-06 M

Q: What about the Cmax ([1]; Cmax (T), Patient 7, termination analysis Week 9) of the same compound?
A: 1e-06 M

Q: What about the Cmax ([1]; Cmax (T), Patient 8, termination analysis Week 9) of the same compound?
A: 6e-07 M
